What all share (type): in vivo, Amaranthus palmeri
The subject of assay [1] is AMAPA WR-2013-043 (resistant against HPPD-inhibitor herbicides). The assay is described as follows: Greenhouse pre-emergence herbicidal activity, AMAPA WR-2013-043. As to conditions: 3 weeks, mean of 6. The text has this: (§1) Test conditions in the greenhouse trial, herbicidal activity against weed plants pre-emergence.
(§2) Seeds of weed plants and crop plants are sown in 3.5 inches (8.89 cm) pots containing a 50:50 mix of Redi-earth (Sun Gro, Bellevue, Washington) and soil at 0.5 to 0.75 inches (1.27 to 1.905 cm) deep. The compounds of the disclosure, formulated in the form of wettable powders (WP) or emulsifiable concentrates (EC), are then applied to the dry soil surface, in the form of an aqueous suspension or emulsion, using a laboratory track sprayer calibrated to deliver 15 gallons per acre (140.31 L/ha). Following the treatment, the pots are placed in a greenhouse and overhead irrigated with 0.25 inches (0.635 cm) for activation and maintained under good growth conditions for the test plants. Visual scoring of the damage to the trial plants takes place after a trial time of 3 weeks in comparison to untreated controls (herbicidal activity in percent (%): 100% activity=plants have died; 0% activity=as control plants). The results are set out in the tables which follow.
AMAPA (WR-2013-043) Amaranthus palmeri (resistant against HPPD-inhibitor herbicides) (Kansas).
(§3) Herbicidal activity against different weeds (undesired plants) was calculated as follows: E^C=A+B−A×B/100; E^C=(A+B+C)−(A×B+A×C+B×C)/100+(A×B×C)/10000; • wherein: • A, B, C=respective value in percent of active ingredient A at a dose rate of a g/ha, ingredient B at a dose rate of b g/ha and ingredient C at a dose rate of c g/ha; • E^C=Expected value according to Colby (S. R. Colby; Weeds 15 (1967), 20-22) in % at a dose rate of a+b (+c), each in g/ha; • Δ=Difference (%) between measured value E and expected value E^C (%) (measured value minus expected value). Evaluation: • measured value E is greater than E^C: →synergism (+Δ); • measured value E is equal to E^C: →additive effect; • measured value E is smaller than E^C: →antagonism (−Δ);
(§4) All values in Tables 1 to 15 are mean values of 6 repetitions.

For assay [2], the system named is AMAPA WR-2015-008 (resistant against glyphosate and metribuzin (PSII-inhibitor), PPO-, HPPD- and ALS-inhibitor herbicides). The assay is described as follows: Greenhouse pre-emergence herbicidal activity, AMAPA WR-2015-008. To be noted: mean of 6.
Excerpt: as §1, §2
AMAPA (WR-2015-008) Amaranthus palmeri (resistant against glyphosate and metribuzin (PSII-inhibitor), PPO-, HPPD- and ALS-inhibitor herbicides).
as §3, §4

Assay [3] has as its system AMAPA WR-2015-002 (resistant against glyphosate, PPO-, HPPD- and ALS-inhibitor herbicides). Put plainly: Greenhouse pre-emergence herbicidal activity, AMAPA WR-2015-002. To be noted: 3 weeks, mean of 6.
Excerpt: as §1, §2
AMAPA (WR-2015-002) Amaranthus palmeri (resistant against glyphosate, PPO-, HPPD- and ALS-inhibitor herbicides) (Tennessee).
as §3, §4

Regarding `O=C(Nc1ccc(F)cc1F)c1cccnc1Oc1cccc(C(F)(F)F)c1` [DFF, 2′,4′-difluoro-2-[3-(trifluoromethyl)phenoxy]pyridine-3-carboxanilide], the “Activity [%] against AMAPA WR-2013-043” value in assay [1] (rate 75 g/ha) came out at 47.5%; in assay [1] (rate 150 g/ha), 63.3%. Moreover, the “Activity [%] against AMAPA WR-2015-008” value in assay [2] (rate 37 g/ha, visual scoring after 3 weeks) amounted to 40.8%; in assay [2] (rate 75 g/ha, 3 weeks), 51.7%. The “Activity [%] against AMAPA WR-2015-002” value stood at 45.8% in assay [3] (rate 75 g/ha) and 71.7% in assay [3] (rate 150 g/ha).

With `CSc1nnc(C(C)(C)C)c(=O)n1N` [MRB, 4-amino-6-(1,1-dimethylethyl)-3-(methylthio)-1,2,4-triazin-5(4H)-one], the “Activity [%] against AMAPA WR-2015-008” value was 39.2% in assay [2] (rate 75 g/ha, 3 weeks) and 45% in assay [2] (rate 150 g/ha, 3 weeks).

Take `CS(=O)(=O)c1ccc(C(=O)C2C(=O)CCCC2=O)c([N+](=O)[O-])c1` [MST, 2-[4-(methylsulfonyl)-2-nitrobenzoyl]cyclohexane-1,3-dione]: the “Activity [%] against AMAPA WR-2013-043” value in assay [1] (rate 52 g/ha) was 55.0%; in assay [1] (rate 105 g/ha), 70.5%. The “Activity [%] against AMAPA WR-2015-008” value in assay [2] (rate 52 g/ha, 3 weeks) came out at 57.7%; in assay [2] (rate 105 g/ha, 3 weeks), 85%. In assay [3] (rate 105 g/ha), the “Activity [%] against AMAPA WR-2015-002” value worked out at 82.5%.
